From patent publication US11697648B2, “Fused pyrimidine pyridinone compounds as JAK inhibitors” (THERAVANCE BIOPHARMA R&D IP, LLC, priority 2019, dated 2023)

How the values were obtained:
JAK3 = JAK3 (Homo sapiens (Human), UniProt P52333); assay: Biochemical JAK3 kinase assay (LanthaScreen); settings: for JAK3 (pKi)-JAK1 (pKi): selectivity JAK3 over JAK1, difference of pKi
Summary of the method: (§1)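 GST-JAK + GFP-STAT1 peptide, HEPES pH 7.5/MgCl2/EGTA/Brij-35 buffer; cpd preincubation 1 h RT; ATP start, 1 h RT; stop with 10 mM EDTA + 2 nM Tb-anti-pSTAT1; TR-FRET 520/495. 4-parameter IC50 → pKi (Cheng-Prusoff).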

JAK1 = JAK1 (Homo sapiens (Human), UniProt P23458); assay: Biochemical JAK1 kinase assay (LanthaScreen)
Summary of the method: as §1

Tyk2 = Tyk2 (Homo sapiens (Human), UniProt P29597); assay: Biochemical Tyk2 kinase assay (LanthaScreen)
Summary of the method: as §1

JAK2 = JAK2 (Homo sapiens (Human), UniProt O60674); assay: Biochemical JAK2 kinase assay (LanthaScreen)
Summary of the method: as §1

[1] = tested on: IL-2 stimulated STAT5 phosphorylation in Tall-1 human T cell line (JAK3); assay: Cellular JAK3 potency assay: inhibition of IL-2 stimulated pSTAT5 in Tall-1 T cells; type: cell-based; settings: IL-2 stimulated pSTAT5, Tall-1 T cells
Summary of the method: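 Tall-1 cells, 45,000 per well, preincubated 1 hour with compound at 37 °C, then stimulated 30 minutes with IL-2 at 300 ng/ml final. pSTAT5 (Tyr694/699) in lysates quantified by AlphaLISA SureFire Ultra. pIC50 derived from inhibition curves, given as mean with SD.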

Chain of Tyk2 (P29597 whole entry): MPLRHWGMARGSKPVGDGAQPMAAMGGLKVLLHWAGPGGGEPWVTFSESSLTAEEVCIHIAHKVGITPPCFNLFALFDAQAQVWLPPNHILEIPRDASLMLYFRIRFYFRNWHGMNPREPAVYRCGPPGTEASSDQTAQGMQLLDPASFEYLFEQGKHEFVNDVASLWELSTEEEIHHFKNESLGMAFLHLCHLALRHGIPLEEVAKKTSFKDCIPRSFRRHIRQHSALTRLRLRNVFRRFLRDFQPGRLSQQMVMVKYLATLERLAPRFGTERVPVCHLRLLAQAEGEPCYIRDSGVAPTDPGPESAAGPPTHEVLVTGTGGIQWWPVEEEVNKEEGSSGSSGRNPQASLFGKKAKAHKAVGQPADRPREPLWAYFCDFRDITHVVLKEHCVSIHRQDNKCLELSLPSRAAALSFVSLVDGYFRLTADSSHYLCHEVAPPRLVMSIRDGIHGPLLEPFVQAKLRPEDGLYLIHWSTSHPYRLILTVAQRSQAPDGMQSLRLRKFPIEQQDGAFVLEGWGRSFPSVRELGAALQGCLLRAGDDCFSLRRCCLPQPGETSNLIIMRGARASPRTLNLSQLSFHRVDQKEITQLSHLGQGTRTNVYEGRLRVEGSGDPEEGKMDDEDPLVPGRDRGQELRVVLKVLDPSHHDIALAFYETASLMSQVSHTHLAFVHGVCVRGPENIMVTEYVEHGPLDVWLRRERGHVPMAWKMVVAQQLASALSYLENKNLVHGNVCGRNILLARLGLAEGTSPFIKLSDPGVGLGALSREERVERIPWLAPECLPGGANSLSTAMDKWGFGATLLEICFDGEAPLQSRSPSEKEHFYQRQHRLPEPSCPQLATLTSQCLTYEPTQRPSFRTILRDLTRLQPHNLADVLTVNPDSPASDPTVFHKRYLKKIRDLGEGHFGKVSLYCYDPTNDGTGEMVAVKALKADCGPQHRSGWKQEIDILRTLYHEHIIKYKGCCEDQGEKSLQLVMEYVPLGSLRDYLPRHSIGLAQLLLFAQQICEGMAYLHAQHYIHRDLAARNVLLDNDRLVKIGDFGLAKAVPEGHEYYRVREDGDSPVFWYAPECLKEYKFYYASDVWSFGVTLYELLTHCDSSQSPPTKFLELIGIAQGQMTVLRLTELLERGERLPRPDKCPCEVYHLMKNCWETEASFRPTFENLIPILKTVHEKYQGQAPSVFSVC
Chain of JAK3 (P52333 whole entry): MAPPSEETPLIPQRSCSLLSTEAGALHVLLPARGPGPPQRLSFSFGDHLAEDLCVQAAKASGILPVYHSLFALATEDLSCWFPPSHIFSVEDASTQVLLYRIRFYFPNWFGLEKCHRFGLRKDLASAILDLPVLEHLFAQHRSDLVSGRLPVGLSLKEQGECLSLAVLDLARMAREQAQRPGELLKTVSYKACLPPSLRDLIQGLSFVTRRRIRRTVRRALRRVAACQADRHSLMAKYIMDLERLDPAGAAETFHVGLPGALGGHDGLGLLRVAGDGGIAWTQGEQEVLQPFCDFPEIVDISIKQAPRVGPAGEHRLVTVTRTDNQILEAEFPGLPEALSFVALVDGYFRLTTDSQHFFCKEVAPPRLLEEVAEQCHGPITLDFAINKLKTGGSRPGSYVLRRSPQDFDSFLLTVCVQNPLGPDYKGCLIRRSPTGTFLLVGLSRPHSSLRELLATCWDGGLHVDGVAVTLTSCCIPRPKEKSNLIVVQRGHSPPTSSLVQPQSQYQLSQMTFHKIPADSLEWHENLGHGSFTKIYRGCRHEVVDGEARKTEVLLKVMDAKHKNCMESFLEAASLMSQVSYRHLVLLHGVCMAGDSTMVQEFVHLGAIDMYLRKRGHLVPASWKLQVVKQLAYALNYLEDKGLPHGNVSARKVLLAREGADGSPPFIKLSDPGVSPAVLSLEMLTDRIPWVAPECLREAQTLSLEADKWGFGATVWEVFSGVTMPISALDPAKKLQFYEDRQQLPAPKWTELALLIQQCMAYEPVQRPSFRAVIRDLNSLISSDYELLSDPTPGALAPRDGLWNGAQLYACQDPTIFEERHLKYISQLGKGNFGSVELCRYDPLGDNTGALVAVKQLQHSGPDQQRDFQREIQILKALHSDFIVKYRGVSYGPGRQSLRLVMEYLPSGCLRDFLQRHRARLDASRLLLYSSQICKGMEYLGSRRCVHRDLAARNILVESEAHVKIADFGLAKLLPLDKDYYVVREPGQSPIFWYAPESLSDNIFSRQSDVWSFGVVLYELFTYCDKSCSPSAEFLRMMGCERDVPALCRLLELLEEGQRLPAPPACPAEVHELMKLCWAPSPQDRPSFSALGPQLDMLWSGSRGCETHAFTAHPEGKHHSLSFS
Chain of JAK1 (P23458 whole entry): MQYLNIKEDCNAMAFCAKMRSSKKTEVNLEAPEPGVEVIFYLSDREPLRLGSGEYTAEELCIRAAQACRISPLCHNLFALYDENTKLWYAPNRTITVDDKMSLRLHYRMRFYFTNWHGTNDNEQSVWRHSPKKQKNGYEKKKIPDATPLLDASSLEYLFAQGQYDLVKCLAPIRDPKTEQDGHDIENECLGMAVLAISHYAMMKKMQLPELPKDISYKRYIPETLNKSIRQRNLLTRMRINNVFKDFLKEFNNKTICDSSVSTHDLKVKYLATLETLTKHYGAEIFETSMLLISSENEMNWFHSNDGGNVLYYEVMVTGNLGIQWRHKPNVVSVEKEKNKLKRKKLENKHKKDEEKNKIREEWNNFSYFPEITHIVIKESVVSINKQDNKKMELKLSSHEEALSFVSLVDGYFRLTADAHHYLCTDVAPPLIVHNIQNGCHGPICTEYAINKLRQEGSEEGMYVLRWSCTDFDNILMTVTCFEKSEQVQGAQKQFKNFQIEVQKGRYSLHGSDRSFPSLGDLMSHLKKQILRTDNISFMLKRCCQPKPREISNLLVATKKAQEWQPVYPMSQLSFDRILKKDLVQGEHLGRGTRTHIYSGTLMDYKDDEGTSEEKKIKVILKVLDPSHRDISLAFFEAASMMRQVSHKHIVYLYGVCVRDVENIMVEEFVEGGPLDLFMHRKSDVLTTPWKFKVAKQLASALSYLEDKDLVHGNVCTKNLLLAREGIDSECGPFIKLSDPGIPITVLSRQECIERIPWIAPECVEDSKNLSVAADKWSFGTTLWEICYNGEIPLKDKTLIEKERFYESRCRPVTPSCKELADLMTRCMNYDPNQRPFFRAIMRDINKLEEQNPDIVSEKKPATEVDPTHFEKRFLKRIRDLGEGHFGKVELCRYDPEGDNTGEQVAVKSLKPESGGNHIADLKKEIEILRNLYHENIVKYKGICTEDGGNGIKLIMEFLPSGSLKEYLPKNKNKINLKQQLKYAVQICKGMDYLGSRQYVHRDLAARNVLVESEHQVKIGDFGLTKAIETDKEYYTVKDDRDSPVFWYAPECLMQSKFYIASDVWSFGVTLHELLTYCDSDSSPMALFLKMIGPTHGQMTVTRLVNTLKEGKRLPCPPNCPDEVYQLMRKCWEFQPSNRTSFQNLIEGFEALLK
Chain of JAK2 (O60674 whole entry): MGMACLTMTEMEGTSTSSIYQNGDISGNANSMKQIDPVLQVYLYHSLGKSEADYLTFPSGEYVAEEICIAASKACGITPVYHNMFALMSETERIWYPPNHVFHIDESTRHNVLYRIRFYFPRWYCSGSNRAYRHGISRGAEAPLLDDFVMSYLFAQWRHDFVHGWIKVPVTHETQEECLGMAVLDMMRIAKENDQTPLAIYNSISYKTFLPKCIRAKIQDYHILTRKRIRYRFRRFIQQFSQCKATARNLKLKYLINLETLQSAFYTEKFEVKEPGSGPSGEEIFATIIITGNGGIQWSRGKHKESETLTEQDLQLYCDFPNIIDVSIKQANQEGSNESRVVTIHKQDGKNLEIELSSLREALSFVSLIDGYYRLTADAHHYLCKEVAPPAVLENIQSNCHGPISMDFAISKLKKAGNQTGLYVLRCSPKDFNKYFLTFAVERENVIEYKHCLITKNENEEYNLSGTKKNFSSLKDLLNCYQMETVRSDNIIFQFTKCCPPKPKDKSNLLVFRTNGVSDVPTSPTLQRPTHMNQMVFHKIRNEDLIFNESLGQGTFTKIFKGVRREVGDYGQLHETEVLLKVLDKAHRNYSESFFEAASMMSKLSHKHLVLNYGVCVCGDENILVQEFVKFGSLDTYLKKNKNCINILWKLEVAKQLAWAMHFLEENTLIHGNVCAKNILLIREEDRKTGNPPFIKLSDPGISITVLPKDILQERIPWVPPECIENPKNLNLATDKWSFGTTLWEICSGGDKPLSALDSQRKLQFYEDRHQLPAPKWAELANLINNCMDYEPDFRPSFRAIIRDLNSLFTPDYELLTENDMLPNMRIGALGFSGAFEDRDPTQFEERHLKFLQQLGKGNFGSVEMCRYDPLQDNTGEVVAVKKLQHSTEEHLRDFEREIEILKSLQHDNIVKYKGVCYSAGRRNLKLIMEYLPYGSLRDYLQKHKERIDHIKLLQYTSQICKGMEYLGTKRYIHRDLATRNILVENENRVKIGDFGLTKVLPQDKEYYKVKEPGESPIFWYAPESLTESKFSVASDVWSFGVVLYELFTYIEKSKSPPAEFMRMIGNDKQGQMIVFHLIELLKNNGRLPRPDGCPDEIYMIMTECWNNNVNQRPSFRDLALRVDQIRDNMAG

| SMILES | JAK 3 (pKi) (JAK3) | JAK3 (pKi)-JAK1 (pKi) (JAK3) | JAK 1 (pKi) (JAK1) | Tyk 2 (pKi) (Tyk2) | JAK 2 (pKi) (JAK2) | Tall-1 (pIC50) [1] |
| --- | --- | --- | --- | --- | --- | --- |
| C=CC(=O)N1CCN(CCn2c(=O)ccc3cnc(Nc4ccc(N5CCN(C(=O)N(C)C)CC5)cc4)nc32)CC1 [Example 146] | B (B represents pKi value between 9 and 10 (Ki between 1 nM and 0.1 nM)) | A (A represents a value of 3 or above) | E (E represents a pKi value of 7 or below (Ki of 100 nM or above)) | E (E represents a pKi value of 7 or below (Ki of 100 nM or above)) | E (E represents a pKi value of 7 or below (Ki of 100 nM or above)) | B (B represents a pC50 value between 6.7 (included) and 7.5 (IC50 between 200 nM and 32 nM)) |
| C=CC(=O)N1CCN(CCn2c(=O)ccc3cnc(Nc4ccc(C5CCN(C)CC5)cc4)nc32)CC1 [Example 87] | B (B represents pKi value between 9 and 10 (Ki between 1 nM and 0.1 nM)) | A (A represents a value of 3 or above) | E (E represents a pKi value of 7 or below (Ki of 100 nM or above)) | E (E represents a pKi value of 7 or below (Ki of 100 nM or above)) | E (E represents a pKi value of 7 or below (Ki of 100 nM or above)) | A (A represents a pIC50 value≥7.5 (IC50≤32 nM)) |
| C=CC(=O)N1CC(CCn2c(=O)ccc3cnc(Nc4ccc(N5CCN(C6CC6)CC5)cc4)nc32)C1 [Example 118] | B (B represents pKi value between 9 and 10 (Ki between 1 nM and 0.1 nM)) | A (A represents a value of 3 or above) | E (E represents a pKi value of 7 or below (Ki of 100 nM or above)) | E (E represents a pKi value of 7 or below (Ki of 100 nM or above)) | E (E represents a pKi value of 7 or below (Ki of 100 nM or above)) | B (B represents a pC50 value between 6.7 (included) and 7.5 (IC50 between 200 nM and 32 nM)) |
| C=CC(=O)N1CCN(CCn2c(=O)ccc3cnc(Nc4ccc(N5CCN(C(C)=O)CC5)c(Cl)c4)nc32)CC1 [Example 153] | B (B represents pKi value between 9 and 10 (Ki between 1 nM and 0.1 nM)) | A (A represents a value of 3 or above) | E (E represents a pKi value of 7 or below (Ki of 100 nM or above)) | E (E represents a pKi value of 7 or below (Ki of 100 nM or above)) | E (E represents a pKi value of 7 or below (Ki of 100 nM or above)) | C (C represents a pIC50 value between 6 and 6.7 (IC50 between 1 μM and 200 nM)) |
| C=CC(=O)N1CCN(CCn2c(=O)ccc3cnc(Nc4ccc(N5CCN(S(C)(=O)=O)CC5)cc4)nc32)[C@@H](C)C1 [Example 176] | A (A represents a pKi value≥10 (Ki≤0.1 nM)) | A (A represents a value of 3 or above) | E (E represents a pKi value of 7 or below (Ki of 100 nM or above)) | E (E represents a pKi value of 7 or below (Ki of 100 nM or above)) | E (E represents a pKi value of 7 or below (Ki of 100 nM or above)) | B (B represents a pC50 value between 6.7 (included) and 7.5 (IC50 between 200 nM and 32 nM)) |
| C[C@H]1CN(c2ccc(Nc3ncc4ccc(=O)n(CCC5CN(C(=O)/C=C/CN(C)C)C5)c4n3)cc2)CCN1C [Example 227] | B (B represents pKi value between 9 and 10 (Ki between 1 nM and 0.1 nM)) | A (A represents a value of 3 or above) | E (E represents a pKi value of 7 or below (Ki of 100 nM or above)) | E (E represents a pKi value of 7 or below (Ki of 100 nM or above)) | E (E represents a pKi value of 7 or below (Ki of 100 nM or above)) | C (C represents a pIC50 value between 6 and 6.7 (IC50 between 1 μM and 200 nM)) |
| C=CC(=O)N1CC(CCn2c(=O)ccc3cnc(Nc4cccc(N5CCN(S(=O)(=O)CCOC)CC5)c4)nc32)C1 [Example 122] | B (B represents pKi value between 9 and 10 (Ki between 1 nM and 0.1 nM)) | A (A represents a value of 3 or above) | E (E represents a pKi value of 7 or below (Ki of 100 nM or above)) | E (E represents a pKi value of 7 or below (Ki of 100 nM or above)) | E (E represents a pKi value of 7 or below (Ki of 100 nM or above)) | B (B represents a pC50 value between 6.7 (included) and 7.5 (IC50 between 200 nM and 32 nM)) |
